Results taken from ChEMBL document CHEMBL1132840, “Benzylidene ketal derivatives as M2 muscarinic receptor antagonists” (Bioorg Med Chem Lett, 2000).

What was measured:
[1] = biological target: T1, Muscarinic acetylcholine receptor M2 (Homo sapiens, UniProt P08172); experiment: Binding affinity at human cloned acetylcholine receptor M2 in CHO cells.; type: cell-based
T1 sequence (P08172 whole entry): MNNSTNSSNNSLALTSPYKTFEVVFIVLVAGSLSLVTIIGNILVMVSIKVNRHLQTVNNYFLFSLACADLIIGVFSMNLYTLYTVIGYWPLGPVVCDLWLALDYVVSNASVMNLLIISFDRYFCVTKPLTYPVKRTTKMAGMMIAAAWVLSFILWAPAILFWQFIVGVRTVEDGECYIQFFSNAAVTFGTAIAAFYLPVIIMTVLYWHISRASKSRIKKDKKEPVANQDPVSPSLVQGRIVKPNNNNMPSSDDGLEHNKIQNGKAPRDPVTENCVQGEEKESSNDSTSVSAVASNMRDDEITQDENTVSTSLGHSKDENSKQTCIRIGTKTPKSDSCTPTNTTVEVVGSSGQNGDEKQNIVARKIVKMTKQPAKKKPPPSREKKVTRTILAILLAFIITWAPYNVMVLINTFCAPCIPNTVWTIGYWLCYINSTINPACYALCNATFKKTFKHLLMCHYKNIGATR

[2] = biological target: Muscarinic acetylcholine receptors; M2 & M3 (Homo sapiens) (UniProt P20309+P08172); experiment: Selectivity ratio for M3 muscarinic receptor compared to M2 muscarinic receptor.; type: protein assay
[3] = biological target: Muscarinic acetylcholine receptors; M1 & M2 (Homo sapiens) (UniProt P11229+P08172); experiment: Selectivity ratio for M1 muscarinic receptor compared to M2 muscarinic receptor.; type: protein assay
Chain of Muscarinic acetylcholine receptors; M1 & M2 (Homo sapiens) (P11229 whole entry, looked up, one chain of several): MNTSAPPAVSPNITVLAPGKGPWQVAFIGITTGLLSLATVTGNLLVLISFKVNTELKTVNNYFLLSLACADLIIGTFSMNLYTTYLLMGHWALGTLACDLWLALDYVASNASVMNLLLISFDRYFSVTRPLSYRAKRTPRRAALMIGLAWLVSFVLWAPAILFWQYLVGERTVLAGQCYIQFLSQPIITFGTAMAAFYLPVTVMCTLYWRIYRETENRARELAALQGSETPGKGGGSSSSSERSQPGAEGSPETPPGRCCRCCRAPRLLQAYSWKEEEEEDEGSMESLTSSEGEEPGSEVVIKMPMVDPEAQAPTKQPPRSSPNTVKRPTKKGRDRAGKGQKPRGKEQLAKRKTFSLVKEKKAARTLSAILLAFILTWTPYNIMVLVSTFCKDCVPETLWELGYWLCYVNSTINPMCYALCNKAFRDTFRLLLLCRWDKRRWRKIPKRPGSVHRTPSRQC

| SMILES | Ki [1] | Ratio [2] | Ratio [3] |
| --- | --- | --- | --- |
| CCCS(=O)(=O)N1CCC(N2CCC(C3(c4ccc([S+]([O-])c5ccc6c(c5)OCO6)cc4)O[C@H](C)[C@@H](C)O3)CC2)CC1 (some centres undefined) | 9.09 nM | 12.9 | 7.5 |
| CCOC(=O)N1CCC(N2CCC(C(=O)c3ccc(S(=O)(=O)c4ccc(OC)cc4)cc3)CC2)CC1 | 2.91 nM | 10.2 | 26.8 |
| CCOC(=O)N1CCC(N2CCC(C3(c4ccc(S(=O)(=O)c5ccc6c(c5)OCO6)cc4)OCCO3)CC2)CC1 | 0.073 nM | 1.3 | 4.1 |
| CCCS(=O)(=O)N1CCC(N2CCC(C3(c4ccc([S+]([O-])c5ccc6c(c5)OCO6)cc4)OCCO3)CC2)CC1 (centres undefined) | 0.823 nM | 10 | 10.8 |
| CCCS(=O)(=O)N1CCC(N2CCC(C3(c4ccc(S(=O)(=O)c5ccc6c(c5)OCO6)cc4)O[C@H](C)[C@@H](C)O3)CC2)CC1 | 1.22 nM | 46.1 | 8.7 |
| CCOC(=O)N1CCC(N2CCC(C3(c4ccc(S(=O)(=O)c5ccc6c(c5)OCO6)cc4)O[C@H](C)[C@@H](C)O3)CC2)CC1 | 0.03 nM | 46 | 21.7 |
| CCCS(=O)(=O)N1CCC(N2CCC(C3(c4ccc(S(=O)(=O)c5ccc6c(c5)OCO6)cc4)SCCS3)CC2)CC1 | 0.031 nM | 57.4 | 62.6 |
| CCOC(=O)N1CCC(N2CCC(C3(c4ccc(S(=O)(=O)c5ccc(OC)cc5)cc4)OCCO3)CC2)CC1 | 0.16 nM | 7.1 | 28.3 |
| CCOC(=O)N1CCC(N2CCC(C3(c4ccc(S(=O)(=O)c5ccc(OC)cc5)cc4)OCCCO3)CC2)CC1 | 0.72 nM | 14.4 | 21 |
| CCCS(=O)(=O)N1CCC(N2CCC(C3(c4ccc([S+]([O-])c5ccc6c(c5)OCO6)cc4)SCCS3)CC2)CC1 (centres undefined) | 0.82 nM | 12.8 | 10.7 |
| CCOC(=O)N1CCC(N2CCC(C3(c4ccc(S(=O)(=O)c5ccc6c(c5)OCO6)cc4)O[C@@H](C)[C@H](C)O3)CC2)CC1 | 1.82 nM | 6.1 | 10.2 |
| C=C(c1ccc(S(=O)(=O)c2ccc(OC)cc2)cc1)C1CCN(C2CCN(C(=O)OCC)CC2)CC1 | 0.07 nM | 21.9 | 68.3 |
| CCCS(=O)(=O)N1CCC(N2CCC(C(=O)c3ccc(S(=O)(=O)c4ccc5c(c4)OCO5)cc3)CC2)CC1 | 1.02 nM | 93.4 | 42.6 |
| CCCS(=O)(=O)N1CCC(N2CCC(C3(c4ccc([S+]([O-])c5ccc6c(c5)OCO6)cc4)CCCO3)CC2)CC1 (centres undefined) | 12.1 nM | 0.5 | 0.49 |

Second part, the molecule after the results:

| Ki [1] | Ratio [2] | Ratio [3] | SMILES |
| --- | --- | --- | --- |
| 0.13 nM | 7.5 | 47.6 | CCOC(=O)N1CCC(N2CCC(C(=O)c3ccc(S(=O)(=O)c4ccc5c(c4)OCO5)cc3)CC2)CC1 |
| 0.11 nM | 3 | 22.5 | CCOC(=O)N1CCC(N2CCC(C3(c4ccc(S(=O)(=O)c5ccc(OC)cc5)cc4)SCCS3)CC2)CC1 |
| 14.3 nM | 2.9 | 4.4 | CCOC(=O)N1CCC(N2CCC(C3(c4ccc(S(=O)(=O)c5ccc(OC)cc5)cc4)SCCCS3)CC2)CC1 |
| – | 93 | 102 | CCCS(=O)(=O)N1CCC(N2CCC(C3(c4ccc(S(=O)(=O)c5ccc6c(c5)OCO6)cc4)OCCO3)CC2)CC1 |
| 34.8 nM | 11.8 | 4.6 | CCCS(=O)(=O)N1CCC(N2CCC(C(=O)c3ccc([S+]([O-])c4ccc5c(c4)OCO5)cc3)CC2)CC1 (centres undefined) |
| 5.07 nM | 0.24 | 0.22 | CCCS(=O)(=O)N1CCC(N2CCC(C3(c4ccc(S(=O)(=O)c5ccc6c(c5)OCO6)cc4)CCCO3)CC2)CC1 (centres undefined) |
